{"source": "patent US20210386367A1", "about": "“DEVICES AND SYSTEMS FOR GASTROINTESTINAL MICROBIOME DETECTION AND MANIPULATION” (Progenity, Inc., priority 2018, published 2021)", "assay_type_in_all_cases": "cell-based", "key": {"Enterococcus faecalis": {"tested_on": "Enterococcus faecalis", "experiment": "Broth microdilution MIC, 50 clinical isolates", "outline": "(§1)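 CLSI broth microdilution in cation-adjusted Mueller Hinton broth, with 3% lysed horse blood added for streptococci, which were incubated with CO2.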"}, "[1]": {"tested_on": "Streptococcus spp. clinical isolates", "experiment": "MIC distribution against clinical isolates", "details": "54 Streptococcus spp. isolates", "excerpt": "(n=19 S. pyogenes, n=20 S. agalactiae and n=20 Viridans group Streptococcus) clinical isolates (μg/mL).\n(§2) As used herein, “minimum inhibitory concentration” or “MIC” refers to the lowest concentration of an antimicrobial agent, for example, an antimicrobial agent as described herein, required to inhibit the growth of an organism. […] “MIC90” represents the MIC value at which ≥90% of the strains within a test population are inhibited; the 90th percentile.\n(§3) Many susceptibility testing methods are known in the art and can be used as described herein (see, e.g., Jorgensen and Ferraro (2009) Clinical Infectious Diseases 49:1749-1755; and Maurer et al. (2017) Infectious Disease Reports 9:6839; the entire contents of each of the foregoing are incorporated herein by reference). For example, antimicrobial susceptibility can be determined using conventional culture based methods such as the broth or agar dilution test. In these dilution tests, the bacterial isolate of interest is inoculated onto different media that include serial dilutions of an antimicrobial agent, and incubated under appropriate conditions (e.g., overnight at 37° C.) to allow for growth to occur. Following the incubation period, the media is examined to determine bacterial growth. The lowest concentration of antibiotic that prevents growth represents the minimal inhibitory concentration (MIC). Broth dilution tests can be miniaturized and mechanized allowing for reproducibility and high throughput."}, "Streptococcus agalactiae": {"tested_on": "Streptococcus agalactiae", "experiment": "Broth microdilution MIC, 20 clinical isolates", "details": "20 Streptococcus agalactiae clinical isolates", "description": "(§4) Minimal inhibitory concentration (MIC) values were determined by broth microdilution or agar dilution in accordance with guidelines from the Clinical and Laboratory Standards Institute (CLSI; (1) “Methods for Dilution Antimicrobial Susceptibility Tests for Bacteria That Grow Aerobically; Approved Standard; 11th ed.” CLSI standard M07-A11, 2018; (2) “Performance Standards for Antimicrobial Susceptibility Testing; Twenty-Eighth Informational Supplement,” CLSI document M100-S28, 2018; and (3) “Methods for Antimicrobial Susceptibility Testing of Anaerobic Bacteria; Approved Standard—Eighth Edition,” CLSI document M11-A8, 2012).\n(§5) Tested aerobically by broth microdilution: • Escherichia coli, n=50 • Klebsiella spp., n=50 • Pseudomonas aeruginosa, n=50 • Streptococcus spp., n=50 • Staphylococcus aureus, n=50 • Enterococcus faecalis, n=50 • Enterobacter aerogenes, n=50 • Proteus mirabilis, n=50\n(§6) Broth microdilution testing of aerobic bacteria was conducted in cation-adjusted Mueller Hinton broth (MHBII). For testing streptococci, lysed horse blood (LHB) was added to MHBII broth at a final concentration of 3%. Where LHB was used, it was added after filtering.\n(§7) Broth microdilution susceptibility testing in 96-well microplates was conducted in accordance with CLSI methods (1) and (2). Automated liquid handlers were used to conduct serial dilutions and liquid transfers, including the Multidrop 384 (Labsystems, Helsinki, Finland), Biomek 2000, and the Biomek FX (Beckman Coulter, Fullerton, Calif.). All wells in columns 2 through 12 of a standard 96-well microdilution plate (Costar 3795) were filled with 150 μL of the appropriate diluent. Then, 300 μL of the test agents were added to the wells of column 1 of the plates at 100× the highest final concentration to be tested. Serial two-fold dilutions were made across the rows through column 11 using the Biomek 2000. The wells of column 12 contained no drug and served as the growth control wells. This plate served as the “mother plate” from which MIC assay plates or “daughter plates” were made.\n(§8) The daughter plates were loaded with 190 μL per well of the appropriate medium using the Multidrop 384. The daughter plates were created using the Biomek FX which transferred 2 μL of drug solution from each well of a mother plate to each corresponding well of the daughter plate in a single step. A standardized inoculum of each test organism was prepared per CLSI methods (1) to equal a 0.5 McFarland standard, followed by a dilution of 1:20 for aerobes and 1:10 for anaerobes. The plates were then inoculated with 10 μL of the diluted inoculum using the Biomek 2000 from low to high drug concentration, resulting in a final concentration of approximately 5×10^5 CFU/mL per well. An un-inoculated plate was incubated in parallel for each medium for the purpose of assessing solubility of the drug in the test media.\n(§9) Inoculated plates were stacked 3 or 4 high, covered with a sterile lid on the top plate, placed into boxes with CO2 planchets (streptococci) or plastic bags (all other isolates). Plates were incubated at 35° C. for 16-24 hr in ambient air for aerobes or for 42-48 hr in the anaerobic environment of the Bactron II anaerobe chamber (Sheldon Manufacturing Co.; Cornelius, Oreg.). Following incubation, the microplates were removed from the incubator and viewed from the bottom using a plate viewer. The MIC values were read and recorded as the lowest concentration of drug that inhibited visible growth of the organism as per CLSI methods (1) and (2)."}, "Staphylococcus aureus": {"tested_on": "Staphylococcus aureus", "experiment": "Broth microdilution MIC, 50 clinical isolates (28 MRSA)", "outline": "as §1"}, "Streptococcus pyogenes": {"tested_on": "Streptococcus pyogenes", "experiment": "Broth microdilution MIC, 19 clinical isolates", "description": "as §4, §5, §6, §7, §8, §9"}, "Streptococcus spp.": {"tested_on": "Streptococcus spp.", "experiment": "Broth microdilution MIC, 54 clinical isolates", "details": "54 Streptococcus spp. clinical isolates", "description": "as §4, §5, §6, §7, §8, §9"}, "[2]": {"tested_on": "Streptococcus pyogenes clinical isolates", "experiment": "MIC distribution against clinical isolates", "details": "19 S. pyogenes isolates", "excerpt": "as §2, §3"}, "[3]": {"tested_on": "Viridans group Streptococci clinical isolates", "experiment": "MIC distribution against clinical isolates", "details": "15 Viridans group Streptococci isolates", "excerpt": "as §2, §3"}}, "data": [{"substance": "piperacillin/tazobactam [piperacillin-tazobactam]", "values": [{"measurement": "MIC50", "setting": "Enterococcus faecalis", "result": 4, "unit": "µg/mL"}, {"measurement": "MIC90", "setting": "Enterococcus faecalis", "result": 8, "unit": "µg/mL"}, {"measurement": "Mode", "setting": "Enterococcus faecalis", "result": 4, "unit": "µg/mL"}, {"measurement": "Cumulative percentage of isolates inhibited at MIC", "setting": "[1]; MIC 0.015 μg/mL", "result": 1.9, "unit": "%"}, {"measurement": "Number of test isolates at MIC", "setting": "[1]; MIC 0.015 μg/mL", "result": 1}, {"measurement": "Cumulative percentage of isolates inhibited at MIC", "setting": "[1]; MIC 0.03 μg/mL", "result": 14.8, "unit": "%"}, {"measurement": "Number of test isolates at MIC", "setting": "[1]; MIC 0.03 μg/mL", "result": 7}, {"measurement": "Cumulative percentage of isolates inhibited at MIC", "setting": "[1]; MIC 0.06 μg/mL", "result": 44.4, "unit": "%"}, {"measurement": "Number of test isolates at MIC", "setting": "[1]; MIC 0.06 μg/mL", "result": 16}, {"measurement": "Cumulative percentage of isolates inhibited at MIC", "setting": "[1]; MIC 1 μg/mL", "result": 90.7, "unit": "%"}, {"measurement": "Number of test isolates at MIC", "setting": "[1]; MIC 1 μg/mL", "result": 1}, {"measurement": "Cumulative percentage of isolates inhibited at MIC", "setting": "[1]; MIC 2 μg/mL", "result": 94.4, "unit": "%"}, {"measurement": "Number of test isolates at MIC", "setting": "[1]; MIC 2 μg/mL", "result": 2}, {"measurement": "Cumulative percentage of isolates inhibited at MIC", "setting": "[1]; MIC 4 μg/mL", "result": 100.0, "unit": "%"}, {"measurement": "Number of test isolates at MIC", "setting": "[1]; MIC 4 μg/mL", "result": 3}, {"measurement": "MIC50", "setting": "Streptococcus agalactiae", "result": 0.25, "unit": "µg/mL"}, {"measurement": "MIC90", "setting": "Streptococcus agalactiae", "result": 0.25, "unit": "µg/mL"}, {"measurement": "MIC range", "setting": "Streptococcus agalactiae", "result": "0.12 to 0.25", "unit": "µg/mL"}, {"measurement": "Mode", "setting": "Streptococcus agalactiae; modal MIC", "result": 0.25, "unit": "µg/mL"}, {"measurement": "MIC50", "setting": "Staphylococcus aureus", "result": 8, "unit": "µg/mL"}, {"measurement": "MIC90", "setting": "Staphylococcus aureus", "result": 64, "unit": "µg/mL"}, {"measurement": "Mode", "setting": "Staphylococcus aureus", "result": 64, "unit": "µg/mL"}, {"measurement": "% R", "setting": "Staphylococcus aureus; FDA breakpoints", "result": 48, "unit": "% ^1"}, {"measurement": "% S", "setting": "Staphylococcus aureus; FDA breakpoints", "result": 52, "unit": "% ^1"}, {"measurement": "MIC50", "setting": "Streptococcus pyogenes", "result": 0.06, "unit": "µg/mL"}, {"measurement": "MIC90", "setting": "Streptococcus pyogenes", "result": 0.12, "unit": "µg/mL"}, {"measurement": "MIC range", "setting": "Streptococcus pyogenes", "result": "0.03 to 0.25", "unit": "µg/mL"}, {"measurement": "Mode", "setting": "Streptococcus pyogenes", "result": 0.06, "unit": "µg/mL"}, {"measurement": "MIC50", "setting": "Streptococcus spp.", "result": 0.12, "unit": "µg/mL"}, {"measurement": "MIC90", "setting": "Streptococcus spp.", "result": 1, "unit": "µg/mL"}, {"measurement": "MIC range", "setting": "Streptococcus spp.", "result": "0.015 to 4", "unit": "µg/mL"}, {"measurement": "Mode", "setting": "Streptococcus spp.; modal MIC", "result": 0.25, "unit": "µg/mL"}, {"measurement": "Cumulative percentage of isolates inhibited at MIC", "setting": "[2]; MIC 0.03 μg/mL", "result": 21.1, "unit": "%"}, {"measurement": "Number of test isolates at MIC", "setting": "[2]; MIC 0.03 μg/mL", "result": 4}, {"measurement": "Cumulative percentage of isolates inhibited at MIC", "setting": "[2]; MIC 0.06 μg/mL", "result": 89.5, "unit": "%"}, {"measurement": "Number of test isolates at MIC", "setting": "[2]; MIC 0.06 μg/mL", "result": 13}, {"measurement": "Number of test isolates at MIC", "setting": "[2]; MIC […]", "result": 1}, {"measurement": "Cumulative percentage of isolates inhibited at MIC", "setting": "[3]; MIC 0.015 μg/mL", "result": 6.7, "unit": "%"}, {"measurement": "Number of test isolates at MIC", "setting": "[3]; MIC 0.015 μg/mL", "result": 1}, {"measurement": "Cumulative percentage of isolates inhibited at MIC", "setting": "[3]; MIC 0.03 μg/mL", "result": 26.7, "unit": "%"}, {"measurement": "Number of test isolates at MIC", "setting": "[3]; MIC 0.03 μg/mL", "result": 3}, {"measurement": "Cumulative percentage of isolates inhibited at MIC", "setting": "[3]; MIC 0.06 μg/mL", "result": 46.7, "unit": "%"}, {"measurement": "Number of test isolates at MIC", "setting": "[3]; MIC 0.06 μg/mL", "result": 3}, {"measurement": "Cumulative percentage of isolates inhibited at MIC", "setting": "[3]; MIC 1 μg/mL", "result": 66.7, "unit": "%"}, {"measurement": "Number of test isolates at MIC", "setting": "[3]; MIC 1 μg/mL", "result": 1}, {"measurement": "Cumulative percentage of isolates inhibited at MIC", "setting": "[3]; MIC 2 μg/mL", "result": 80.0, "unit": "%"}, {"measurement": "Number of test isolates at MIC", "setting": "[3]; MIC 2 μg/mL", "result": 2}, {"measurement": "Cumulative percentage of isolates inhibited at MIC", "setting": "[3]; MIC 4 μg/mL", "result": 100.0, "unit": "%"}, {"measurement": "Number of test isolates at MIC", "setting": "[3]; MIC 4 μg/mL", "result": 3}, {"measurement": "Number of test isolates at MIC", "setting": "[3]; MIC […]", "result": 1}]}]}
